Data as given in US20080287481A1, “PROCESS FOR THE PREPARATION OF DES[…] MIXTURES” (priority 2006, published 2008).

Settings: all storage conditions of the table; consistency in the IR pattern
Excerpt: The term “stable” is used to describe an intimate mixture of desloratadine Form I and Form II that maintains the initial weight ratio of forms during formulation into a pharmaceutical dosage form and thereafter during a commercially useful period of normal storage and use, such as about one year, about 18 months, about two years, or any other desired period. […] Stability testing procedures are well known in the pharmaceutical industry.

## Clc1ccc2c(c1)CCc1cccnc1C2=C1CCNCC1 [8-chloro-6,11-dihydro-11-(4-piperidylidene)-5H-benzo[5,6]cyclohepta[1,2-b]pyridine]
  interconversion of forms during the storage period: no interconversion of forms
